According to PubChem BioAssay AID1963974 (Molecular Pharmacology Branch, DTP, NCI, 2024):

System: 648629-189-R-J1-PDC spheroids with HUVEC/MSC, viability
Assay: Anticancer human tumor 648629-189-R-J1-PDC patient-derived bladder carcinoma cell line growth inhibition [PI3K]
Conditions: for IC50: curve of first compound; for viability, T/C: stronger effect = lower value
How it was run: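 Tumor cells were combined with HUVEC and MSCs into spheroids, then dosed with PI3K-inhibitor combinations over half-log ranges capped near clinical Cmax or 10 microM.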

[1] = second compound 0.00316 µM, first compound 0.0316 µM
[2] = second compound 0.00316 µM, first compound 0.1 µM
[3] = second compound 0.00316 µM, first compound 0.316 µM
[4] = second compound 0.00316 µM, first compound 1 µM
[5] = second compound 0.00316 µM, first compound 3.16 µM
[6] = second compound 0.00316 µM, first compound 10 µM
[7] = second compound 0.01 µM, first compound 0.0316 µM
[8] = second compound 0.01 µM, first compound 0.1 µM
[9] = second compound 0.01 µM, first compound 0.316 µM
[10] = second compound 0.01 µM, first compound 1 µM
[11] = second compound 0.01 µM, first compound 3.16 µM
[12] = second compound 0.01 µM, first compound 10 µM
[13] = second compound 0.0316 µM, first compound 0.0316 µM
[14] = second compound 0.0316 µM, first compound 0.1 µM
[15] = second compound 0.0316 µM, first compound 0.316 µM
[16] = second compound 0.0316 µM, first compound 1 µM
[17] = second compound 0.0316 µM, first compound 3.16 µM
[18] = second compound 0.0316 µM, first compound 10 µM
[19] = second compound 0.1 µM, first compound 0.0316 µM
[20] = second compound 0.1 µM, first compound 0.1 µM
[21] = second compound 0.1 µM, first compound 0.316 µM
[22] = second compound 0.1 µM, first compound 1 µM
[23] = second compound 0.1 µM, first compound 3.16 µM
[24] = second compound 0.1 µM, first compound 10 µM
[25] = second compound 0.316 µM, first compound 0.0316 µM
[26] = second compound 0.316 µM, first compound 0.1 µM
[27] = second compound 0.316 µM, first compound 0.316 µM
[28] = second compound 0.316 µM, first compound 1 µM
[29] = second compound 0.316 µM, first compound 3.16 µM
[30] = second compound 0.316 µM, first compound 10 µM
[31] = second compound 1 µM, first compound 0.0316 µM
[32] = second compound 1 µM, first compound 0.1 µM
[33] = second compound 1 µM, first compound 0.316 µM
[34] = second compound 1 µM, first compound 1 µM
[35] = second compound 1 µM, first compound 3.16 µM
[36] = second compound 1 µM, first compound 10 µM
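Note: spheroids exposed to agents for seven days before reading.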
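Throughout, for viability, T/C: percent of vehicle control luminescence where 100% = DMSO treated spheroids.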

C#Cc1c(F)ccc2cc(O)cc(-c3ncc4c(N5CC6CCC(C5)N6)nc(OCC56CCCN5CC(F)C6)nc4c3F)c12 (stereo unspecified) + CC(Nc1ccc2c(c1)OCCn1cc(N3C(=O)OCC3C(F)F)nc1-2)C(N)=O
IC50 (second compound 0.00316 µM): > 10 µM
IC50 (second compound 0.01 µM): > 10 µM
IC50 (second compound 0.0316 µM): > 10 µM
IC50 (second compound 0.1 µM): > 10 µM
IC50 (second compound 0.316 µM): > 10 µM
IC50 (second compound 1 µM): > 10 µM
viability, T/C [1]: 105%
viability, T/C [2]: 96.2%
viability, T/C [3]: 109%
viability, T/C [4]: 96.6%
viability, T/C [5]: 120%
viability, T/C [6]: 102%
viability, T/C [7]: 97.9%
viability, T/C [8]: 99.9%
viability, T/C [9]: 96.3%
viability, T/C [10]: 97%
viability, T/C [11]: 106%
viability, T/C [12]: 85.8%
viability, T/C [13]: 105%
viability, T/C [14]: 100%
viability, T/C [15]: 93.2%
viability, T/C [16]: 99.1%
viability, T/C [17]: 103%
viability, T/C [18]: 92.5%
viability, T/C [19]: 92.7%
viability, T/C [20]: 85.5%
viability, T/C [21]: 81.7%
viability, T/C [22]: 90%
viability, T/C [23]: 95.4%
viability, T/C [24]: 89.3%
viability, T/C [25]: 82.3%
viability, T/C [26]: 75%
viability, T/C [27]: 71.7%
viability, T/C [28]: 74.8%
viability, T/C [29]: 80.8%
viability, T/C [30]: 75.3%
viability, T/C [31]: 57.5%
viability, T/C [32]: 66.4%
viability, T/C [33]: 63.2%
viability, T/C [34]: 58.7%
viability, T/C [35]: 64.5%
viability, T/C [36]: 57.4%

C#Cc1c(F)ccc2cc(O)cc(-c3ncc4c(N5CC6CCC(C5)N6)nc(OCC56CCCN5CC(F)C6)nc4c3F)c12 (stereo unspecified) + COc1c(OCCCN2CCOCC2)ccc2c3n(c(=NC(=O)c4cnc(N)nc4)nc12)CCN3
IC50 (second compound 0.00316 µM): > 10 µM
IC50 (second compound 0.01 µM): > 10 µM
IC50 (second compound 0.0316 µM): > 10 µM
IC50 (second compound 0.1 µM): > 10 µM
IC50 (second compound 0.316 µM): < 0.0316 µM
IC50 (second compound 1 µM): < 0.0316 µM
viability, T/C [1]: 107%
viability, T/C [2]: 100%
viability, T/C [3]: 96.5%
viability, T/C [4]: 112%
viability, T/C [5]: 105%
viability, T/C [6]: 94.6%
viability, T/C [7]: 112%
viability, T/C [8]: 104%
viability, T/C [9]: 103%
viability, T/C [10]: 113%
viability, T/C [11]: 102%
viability, T/C [12]: 103%
viability, T/C [13]: 89.4%
viability, T/C [14]: 91.2%
viability, T/C [15]: 85.9%
viability, T/C [16]: 92.2%
viability, T/C [17]: 79.7%
viability, T/C [18]: 91.5%
viability, T/C [19]: 67.2%
viability, T/C [20]: 61.3%
viability, T/C [21]: 58.2%
viability, T/C [22]: 60.6%
viability, T/C [23]: 65.1%
viability, T/C [24]: 57.5%
viability, T/C [25]: 24.3%
viability, T/C [26]: 21.2%
viability, T/C [27]: 18.3%
viability, T/C [28]: 19.8%
viability, T/C [29]: 17.9%
viability, T/C [30]: 5.74%
viability, T/C [31]: 3.22%
viability, T/C [32]: 2.48%
viability, T/C [33]: 2.94%
viability, T/C [34]: 3.35%
viability, T/C [35]: 3.07%
viability, T/C [36]: 0.58%

CNC(=O)c1ccc(N2C(=S)N(c3ccc(C#N)c(C(F)(F)F)c3)C(=O)C2(C)C)cc1F + Cc1nc(NC(=O)N2CCCC2C(N)=O)sc1-c1ccnc(C(C)(C)C(F)(F)F)c1
IC50 (second compound 0.0316 µM): > 10 µM
IC50 (second compound 0.1 µM): > 10 µM
IC50 (second compound 0.316 µM): > 10 µM
IC50 (second compound 1 µM): > 10 µM
IC50 (second compound 3.16 µM): > 10 µM
IC50 (second compound 10 µM): < 0.0316 µM
viability, T/C [13]: 106%
viability, T/C [14]: 105%
viability, T/C [15]: 118%
viability, T/C [16]: 111%
viability, T/C [17]: 104%
viability, T/C [18]: 89.7%
viability, T/C [19]: 90.1%
viability, T/C [20]: 92.7%
viability, T/C [21]: 106%
viability, T/C [22]: 102%
viability, T/C [23]: 102%
viability, T/C [24]: 79%
viability, T/C [25]: 91.4%
viability, T/C [26]: 99.7%
viability, T/C [27]: 98.1%
viability, T/C [28]: 98.4%
viability, T/C [29]: 89.7%
viability, T/C [30]: 72.8%
viability, T/C [31]: 73.2%
viability, T/C [32]: 82.3%
viability, T/C [33]: 76.7%
viability, T/C [34]: 81.1%
viability, T/C [35]: 78.6%
viability, T/C [36]: 75.2%
viability, T/C (second compound 3.16 µM, first compound 0.0316 µM): 64%
viability, T/C (second compound 3.16 µM, first compound 0.1 µM): 67.1%
viability, T/C (second compound 3.16 µM, first compound 0.316 µM): 55.1%
viability, T/C (second compound 3.16 µM, first compound 1 µM): 60.7%
viability, T/C (second compound 3.16 µM, first compound 3.16 µM): 64.7%
viability, T/C (second compound 3.16 µM, first compound 10 µM): 63.2%
viability, T/C (second compound 10 µM, first compound 0.0316 µM): 40.3%
viability, T/C (second compound 10 µM, first compound 0.1 µM): 44.1%
viability, T/C (second compound 10 µM, first compound 0.316 µM): 40.2%
viability, T/C (second compound 10 µM, first compound 1 µM): 42%
viability, T/C (second compound 10 µM, first compound 3.16 µM): 45.7%
viability, T/C (second compound 10 µM, first compound 10 µM): 48.6%
